Values quoted from earlier work as cited in patent US7329656B2, “Arylthiobenzylpiperidine derivatives” (H. Lundbeck A/S, priority 2004, dated 2008).
Where two headings read alike, the source gives them in different places.

What was measured:
rat [1] = settings: rat forced-swim
rat [2] = settings: rat social interaction
guinea pig = guinea pig maternal-separation vocalization

## COCC1=C(C(=O)OC)[C@H](c2ccc(F)c(F)c2)N(C(=O)NCCCN2CCC(c3cccc(NC(C)=O)c3)CC2)C(=O)N1 [SNAP-7941]
Rat [1]
  behavioral profile in model of depression and/or anxiety: profile similar to clinically used anti-depressants and anxiolytics
Rat [2]
  behavioral profile in model of depression and/or anxiety: profile similar to clinically used anti-depressants and anxiolytics
Guinea pig
  behavioral profile in model of depression and/or anxiety: profile similar to clinically used anti-depressants and anxiolytics
